Results on 31 molecules are retold here after US7173004B2, “Macrocyclic isoquinoline peptide inhibitors of hepatitis C virus” (Bristol-Myers Squibb Company, priority 2003, dated 2007).

Structures are written as SMILES. A value given as a limit tells only on which side of the number the result lay.

The assay deals with HCV replicon (HCV 1b-377-neo replicon cells, Huh7). The assay is described as follows: HCV replicon cell-based FRET assay. Particulars: Hepatitis C virus, Huh-7. On the procedure:
HCV Replion assays were utilized in the present invention, and were prepared, conducted and validated as follows:
An HCV replicon whole cell system was established as described by Lohmann V, Korner F, Koch J, Herian U, Theilmann L, Bartenschlager R., Science 285(5424): 110–3 (1999). This system enabled us to evaluate the effects of our HCV Protease compounds on HCV RNA replication. Briefly, using the HCV strain 1B sequence described in the Lohmann paper (Assession number: AJ238799), an HCV cDNA was synthesized by Operon Technologies, Inc. (Alameda, Calif.), and the full-length replicon was then assembled in plasmid pGem9zf(+) (Promega, Madison, Wis.) using standard molecular biology techniques. The replicon consists of (i) the HCV 5′ UTR fused to the first 12 amino acids of the capsid protein, (ii) the neomycin phosphotransferase gene (neo), (iii) the IRES from encephalomyocarditis virus (EMCV), and (iv) HCV NS3 to NS5B genes and the HCV 3′ UTR. Plasmid DNAs were linearized with ScaI and RNA transcripts were synthesized in vitro using the T7 MegaScript transcription kit (Ambion, Austin, Tex.) according to manufacturer's directions. To generate cell lines, 4×10^6 Huh-7 cells (kindly provided by R. Bartenschlager and available from Health Science Research Resources Bank, Japan Health Sciences Foundation) were electroporated (GenePulser System, Bio-Rad) with 10 microgram(“μg”) of RNA transcript and plated into 100-mm dishes. After 24 h, selective media containing 1.0 milligrams/milliliter (“mg/ml”) G418 was added and media was changed every 3 to 5 days. Approximately 4 weeks after electroporation, small colonies were visible which were isolated and expanded for further analysis. These cell lines were maintained at 37° C., 5% CO2, 100% relative humidity in DMEM (Cat# 11965-084) Gibco-BRL, Rockville, Md., with 10% heat inactivated calf serum (Sigma), 10 ml of 100× penicillin/streptomycin (Cat# 15140-122) Gibco-BRL, Rockville, Md., Geneticin (Cat# 10131-027) Gibco-BRL, Rockville, Md. at 1 mg/ml. One of the cell lines (deposited as ATCC Accession No. PTA-4583 in the American Type Culture Collection) which had approximately 3,000 copies of HCV replicon RNA/cell was used for development of the assay (HCV 1b-377-neo replicon cells).
Huh7 cells, constitutively expressing the HCV replicon, were grown in Dulbecco's Modified Eagle Media (DMEM) containing 10% Fetal calf serum (FCS) and 1 mg/ml G418 (Gibco-BRL). Cells were seeded the night before (1.5×10^4 cells/well) in 96-well tissue-culture sterile plates. Compound and no compound controls were prepared in DMEM containing 4% FCS, 1:100 Penicillin/Streptomysin, 1:100 L-glutamine and 5% DMSO in the dilution plate (0.5% DMSO final concentration in the assay). Compound/DMSO mixes were added to the cells and incubated for 4 days at 37° C. After 4 days, cells were first assessed for cytotoxicity using alamar Blue (Trek Diagnotstic Systems) for a CC50 reading. The toxicity of compound (CC50) was determined by adding 1/10th volume of alamar Blue to the media incubating the cells. After 4 hr, the fluorescence signal from each well was read, with an excitation wavelength at 530 nm and an emission wavelength of 580 nm, using the Cytofluor Series 4000 (Perspective Biosystems). Plates were then rinsed thoroughly with Phosphate-Buffered Saline (PBS) (3 times 150 μl). The cells were lysed with 25 μl of a lysis assay reagent containing an HCV protease substrate (5× cell Luciferase cell culture lysis reagent (Promega #E153A) diluted to 1× with distilled water, NaCl added to 150 mM final, the FRET peptide diluted to 10 μM final from a 2 mM stock in 100% DMSO). The HCV protease substrate (FRET peptide; AnaSpec, Inc. cat #22991, described by Taliani et al. in Anal. Biochem. 240(2):60–67 (1996)) contains a fluorescence donor, EDANS, near one end of the peptide and an acceptor, DABCYL, near the other end. […]
On to `CCC1(S(=O)(=O)NC(=O)C23CC2C=CCCCS(=O)(=O)CC(NC(=O)OC(C)(C)C)C(=O)N2CC(Oc4nccc5cc(OC)ccc45)CC2C(=O)N3)CC1` (stereo not shown) [Compound 48], for which the EC50 is 0.05 to 0.5 µM. Then `COc1ccc2c(OC3CC4C(=O)NC5(C(=O)NS(=O)(=O)C6(C)CC6)CC5C=CCCCS(=O)(=O)CC(NC(=O)OC(C)(C)C)C(=O)N4C3)nccc2c1` (stereo not shown) [Compound 49], with 0.5 to 5 µM; and `CC1(OC(=O)NC2CCCCCC=CC3CC3(C(=O)NS(=O)(=O)C3CC3)NC(=O)C3CC(Oc4nccc5ccccc45)CN3C2=O)CCCC1` (stereo not shown) [Compound 50], with less than 0.05 µM. With `CC(C)(OC(=O)NC1CCCCCC=CC2CC2(C(=O)NS(=O)(=O)C2CC2)NC(=O)C2CC(Oc3nccc4ccccc34)CN2C1=O)C(F)(F)F` (stereo not shown) [Compound 51] the figure was less than 0.05 µM. The molecule `CC(C)(CCl)OC(=O)NC1CCCCCC=CC2CC2(C(=O)NS(=O)(=O)C2CC2)NC(=O)C2CC(Oc3nccc4ccccc34)CN2C1=O` (stereo not shown) [Compound 52] had an EC50 of less than 0.05 µM. As for `COc1ccc2c(OC3CC4C(=O)NC5(C(=O)NS(=O)(=O)C6(C)CC6)CC5C=CCCCCCC(NC(=O)OC(C)(C)C)C(=O)N4C3)nccc2c1` (stereo not shown) [Compound 53], the EC50 is less than 0.05 µM. With `CCC1(S(=O)(=O)NC(=O)C23CC2C=CCCCCCC(NC(=O)OC(C)(C)C)C(=O)N2CC(Oc4nccc5cc(OC)ccc45)CC2C(=O)N3)CC1` (stereo not shown) [Compound 54] the figure was less than 0.05 µM; with `CC1(OC(=O)N[C@H]2CCCCC/C=C\[C@@H]3C[C@@]3(C(=O)NS(=O)(=O)C3CC3)NC(=O)[C@@H]3C[C@@H](Oc4nccc5ccccc45)CN3C2=O)CCC1` [Compound 56, [(Z)-(1S,4R,14S,18R)-4-cyclopropanesulfonylaminocarbonyl-18-(isoquinolin-1-yloxy)-2,15-dioxo-3,16-diaza-tricyclo[14.3.0.0^4,6]nonadec-7-en-14-yl]-carbamic acid 1-methyl-cyclobutyl ester], less than 0.05 µM; with `CC(C)(C)OC(=O)NC1CCCCCC=CC2CC2(C(=O)NS(=O)(=O)C2CC2)NC(=O)C2CC(Oc3nc(Cl)cc4ccccc34)CN2C1=O` (stereo not shown) [Compound 57], less than 0.05 µM.

In the case of `CC(C)(C)OC(=O)N[C@H]1CCCCC/C=C\[C@@H]2C[C@@]2(C(=O)NS(=O)(=O)C2CC2)NC(=O)[C@@H]2C[C@@H](Oc3nc(-c4ccccc4)cc4ccccc34)CN2C1=O` [Compound 58, [(Z)-(1S,4R,14S,18R)-4-cyclopropanesulfonylaminocarbonyl-2,15-dioxo-18-(3-phenyl-isoquinolin-1-yloxy)-3,16-diaza-tricyclo[14.3.0.0^4,6]nonadec-7-en-14-yl]-carbamic acid tert-butyl ester], the concentration giving a half-maximal response (EC50) is less than 0.05 µM. With `CC1(OC(=O)NC2CCCCCC=CC3CC3(C(=O)NS(=O)(=O)C3CC3)NC(=O)C3CC(Oc4nccc5ccccc45)CN3C2=O)CC1` (stereo not shown) [Compound 59] the figure was less than 0.05 µM; with `COc1ccc2c(OC3CC4C(=O)NC5(C(=O)NS(=O)(=O)C6CC6)CC5C=CCCCCCC(NC(=O)N5CCCC5)C(=O)N4C3)nccc2c1` (stereo not shown) [Compound 60], less than 0.05 µM; with `COc1ccc2c(O[C@@H]3C[C@H]4C(=O)N[C@]5(C(=O)O)C[C@H]5/C=C\CCCO[C@H](C)[C@H](NC(=O)OC(C)(C)C)C(=O)N4C3)nccc2c1` [Compound 61], 5 to 50 µM.

Molecule `COc1ccc2c(OC3CC4C(=O)NC5(C(=O)NS(=O)(=O)C6CC6)CC5C=CCCCOC(C)C(NC(=O)OC(C)(C)C)C(=O)N4C3)nccc2c1` (stereo not shown) [Compound 62] showed an EC50 of 0.05 to 0.5 µM.

In turn, `COc1ccc2c(OC3CC4C(=O)NC5(C(=O)NS(=O)(=O)C6CC6)CC5C=CCCCOC(C)C(NC(=O)OCC(C)(C)C)C(=O)N4C3)nccc2c1` (stereo not shown) [Compound 63] displayed an EC50 of 0.05 to 0.5 µM. Consider `COc1ccc2c(OC3CC4C(=O)NC5(C(=O)NS(=O)(=O)C6CC6)CC5C=CCCCOC(C)C(NC(=O)OC(C)C)C(=O)N4C3)nccc2c1` (stereo not shown) [Compound 64], for which the half-maximal effective concentration (EC50) was 0.05 to 0.5 µM. Then `COc1ccc2c(OC3CC4C(=O)NC5(C(=O)NS(=O)(=O)C6CC6)CC5C=CCCCOC(C)C(NC(=O)NC5CCCC5)C(=O)N4C3)nccc2c1` (stereo not shown) [Compound 65], with less than 0.05 µM. With `COc1ccc2c(OC3CC4C(=O)NC5(C(=O)NS(=O)(=O)C6(C)CC6)CC5C=CCCCOC(C)C(NC(=O)OC(C)(C)C)C(=O)N4C3)nccc2c1` (stereo not shown) [Compound 66] the figure was 0.05 to 0.5 µM; with `COc1ccc2c(OC3CC4C(=O)NC5(C(=O)NS(=O)(=O)C6(C)CC6)CC5C=CCCCOC(C)C(NC(=O)OCC(C)(C)C)C(=O)N4C3)nccc2c1` (stereo not shown) [Compound 67], 0.05 to 0.5 µM.

The molecule `COc1ccc2c(OC3CC4C(=O)NC5(C(=O)NS(=O)(=O)C6(C)CC6)CC5C=CCCCOC(C)C(NC(=O)OC(C)C)C(=O)N4C3)nccc2c1` (stereo not shown) [Compound 68] gave a concentration giving a half-maximal response (EC50) of 0.05 to 0.5 µM. With `COc1ccc2c(OC3CC4C(=O)NC5(C(=O)NS(=O)(=O)C6(C)CC6)CC5C=CCCCOC(C)C(NC(=O)NC5CCCC5)C(=O)N4C3)nccc2c1` (stereo not shown) [Compound 69] the figure was less than 0.05 µM. With `CCC1(S(=O)(=O)NC(=O)C23CC2C=CCCCOC(C)C(NC(=O)OC(C)(C)C)C(=O)N2CC(Oc4nccc5cc(OC)ccc45)CC2C(=O)N3)CC1` (stereo not shown) [Compound 70] the figure was 0.05 to 0.5 µM. With `CCC1(S(=O)(=O)NC(=O)C23CC2C=CCCCOC(C)C(NC(=O)OCC(C)(C)C)C(=O)N2CC(Oc4nccc5cc(OC)ccc45)CC2C(=O)N3)CC1` (stereo not shown) [Compound 71] the figure was 0.05 to 0.5 µM; with `CCC1(S(=O)(=O)NC(=O)C23CC2C=CCCCOC(C)C(NC(=O)OC(C)C)C(=O)N2CC(Oc4nccc5cc(OC)ccc45)CC2C(=O)N3)CC1` (stereo not shown) [Compound 72], 0.05 to 0.5 µM. For `CCC1(S(=O)(=O)NC(=O)C23CC2C=CCCCOC(C)C(NC(=O)NC2CCCC2)C(=O)N2CC(Oc4nccc5cc(OC)ccc45)CC2C(=O)N3)CC1` (stereo not shown) [Compound 73], the EC50 fell in the range of 0.05 to 0.5 µM. Then `COc1ccc2c(OC3CC4C(=O)NC5(C(=O)NS(=O)(=O)C6CC6)CC5C=CCCCSCC(NC(=O)OC(C)C)C(=O)N4C3)nccc2c1` (stereo not shown) [Compound 74], with less than 0.05 µM.

Regarding `COc1ccc2c(OC3CC4C(=O)NC5(C(=O)NS(=O)(=O)C6CC6)CC5C=CCCCSCC(NC(=O)OCC(C)(C)C)C(=O)N4C3)nccc2c1` (stereo not shown) [Compound 75], the EC50 is less than 0.05 µM. With `CC(C)(C)OC(=O)NC1CSCCCC=CC2CC2(C(=O)NS(=O)(=O)C2CC2)NC(=O)C2CC(Oc3nccc4c(Cl)cccc34)CN2C1=O` (stereo not shown) [Compound 78] the figure was less than 0.05 µM. Turning to `COc1ccc2c(O[C@@H]3C[C@H]4C(=O)N[C@]5(C(=O)O)C[C@H]5/C=C\CCCSC(C)(C)[C@H](NC(=O)OC(C)(C)C)C(=O)N4C3)nccc2c1` [Compound 79, (1S,4R,6S,14R,18R)-7-cis-14-tert-Butoxycarbonylamino-13,13-dimethyl-18-(6-methoxy-isoquinolin-1-yloxy)-2,15-dioxo-12-thia-3,16-diazatricyclo[14.3.0.0^4,6]nonadec-7-ene-4-carboxylic acid], the concentration giving a half-maximal response (EC50) lay within 5 to 50 µM. In turn, `COc1ccc2c(O[C@@H]3C[C@H]4C(=O)N[C@]5(C(=O)O)C[C@H]5/C=C\CCCOC[C@H](NC(=O)OC(C)(C)C)C(=O)N4C3)nccc2c1` [Compound 84, (1S,4R,6S,14S,18R)-7-cis-14-tert-Butoxycarbonylamino-18-(6-methoxyisoquinolin-1-yloxy)-2,15-dioxo-12-oxa-3,16-diazatricyclo[14.3.0.0^4,6]-nonadec-7-ene-4-carboxylic acid] gave a concentration for a half-maximal effect (EC50) of 0.5 to 5 µM. With `COc1ccc2c(OC3CC4C(=O)NC5(C(=O)O)CC5C=CCCCCC(NC(=O)OC(C)(C)C)C(=O)N4C3)nccc2c1` (stereo not shown) [Compound 143] the figure was 0.5 to 5 µM.
